Among the data in PubChem BioAssay (NCI) are TGI values, retold here.

SMILES strings stand for the structures.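 Test compounds were applied to cells in 96-well plates for 48 hours at 5 doses. The concentration for full growth arrest is given as TGI.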

Test systems include ACHN renal; COLO 205 colon; EKVX NSCLC; HCC-2998 colon; IGROV1 ovarian; KM12 colon; RPMI-8226 leukemia; SF-268 CNS; SF-539 CNS; SN12C renal; SR leukemia; UACC-257 melanoma.
Common to all, as to test: NCI anticancer screen, dose series, 48 h

On to `COC(=O)N1CC2C3C4CC(C(c5ccccc5)=C4c4ccccc4)C3C21` (stereo unspecified), for which the TGI in the assay with ACHN renal amounted to 52.3 µM; in the assay with COLO 205 colon it was 45.2 µM; in the assay with EKVX NSCLC, 36.7 µM; in the assay with HCC-2998 colon, 31.5 µM; in the assay with IGROV1 ovarian, 45.6 µM; with KM12 colon, 34.2 µM. Besides, the TGI in the assay on RPMI-8226 leukemia worked out at 53.4 µM; in the assay with SF-268 CNS, 33.7 µM; with SF-539 CNS, 32 µM; with SN12C renal it was 33.1 µM; in the assay on SR leukemia it was 51.1 µM; in the assay on UACC-257 melanoma, 28.9 µM.
For the molecule `CC/C=C(\C(=C/CC)[N+](=O)[O-])[N+](=O)[O-]`, the TGI in the assay on ACHN renal was determined as 33.2 µM; in the assay with COLO 205 colon, 37 µM; in the assay with EKVX NSCLC it was 29.8 µM; in the assay on HCC-2998 colon, 34.4 µM; in the assay with IGROV1 ovarian, 35.9 µM; with RPMI-8226 leukemia, 47.6 µM. In addition, the TGI in the assay on SF-539 CNS came to 40.3 µM; with SN12C renal, 35.2 µM; in the assay on UACC-257 melanoma, 32.1 µM.
